Source: PubChem BioAssay AID2060492 (Molecular Pharmacology Branch, DTP, NCI, 2025)
Values joined by “and” are separate entries in the source; they are usually repeats but may differ in a detail not shown here. Equal values may be shown once.

Test system: 695427-040-R-J1-PDC complex spheroids, viability percent T/C
Test: Anticancer human tumor 695427-040-R-J1-PDC patient-derived colon adenocarcinoma cell line growth inhibition [GQUAD]
Settings: for viability, T/C: stronger effect = lower value
Description: DNA G-quadruplex Stabilizer Agents in Combinations in Complex Spheroids
A high-throughput screen of multi-cell type tumor spheroids was designed to identify active combinations of DNA G-quadruplex stabilizer agents and targeted small molecules. Complex spheroids include a stromal component modeled by human endothelial cells (HUVEC) and fibroblasts modeled by human mesenchymal stem cells (MSCs). The concentration ranges selected for each drug and investigational agent were based upon clinically achievable concentrations if the clinical Cmax of the agent was known.
Compounds. The drugs and investigational agents: pidnarulex (CX-5461; NSC782164), APTO-253 (NSC789042), BRACO-19 (NSC847499), peposertib (NSC802822), ceralasertib (NSC780249), elimusertib (NSC800525), camonsertib (NSC841442), AZD-1390 (NSC803789), olaparib (NSC753686), talazoparib (NSC767125), ART-558 (NSC835418), sotorasib (NSC818433), MRTX-1133 (NSC836407), SN-38 (NSC673596), topotecan (NSC609699), etoposide (NSC141540), doxorubicin (NSC123127), gemcitabine (NSC613327), 5-fluorouracil (NSC19893), paclitaxel (NSC125973), vemurafenib (NSC761431), panobinostat (NSC761190), R-306465 (JNJ-16241199; NSC773264), adavosertib (NSC754352), TP-3654 (NSC805149), carboplatin (NSC241240), KSQ-4279 (NSC840948), and staurosporine (NSC755774) were obtained from the National Cancer Institute (NCI) Developmental Therapeutics Program Chemical Repository (34). The FDA-approved anticancer drug set is available from the NCI Developmental Therapeutics Program. […] The stock solutions were prepared in dimethyl sulfoxide (DMSO, Sigma-Aldrich, St. Louis, MO, cat. D2650) at 800-fold the tested concentration and stored at -70 degrees C prior to their use. All drugs and investigational agents were tested over a range starting from a high concentration at or near the clinical Cmax and decreasing in half-log increments. If the clinical Cmax for an agent had not been determined, the highest concentration tested was 10 microM.
2.3 Cell Culture. All cells were maintained in an incubator at 37 degrees C and 5% CO2 with 95% humidity. The PDC lines were cultured according to standard operating procedures established by the NCI PDMR. All PDCs were thawed and cultured in Matrigel-coated flasks prepared with a working solution of 1X Ham's F-12 nutrient mix, without supplementation (Invitrogen, cat. 11765054), 100 U/mL penicillin-streptomycin (Invitrogen, cat. 15140122), and 2.5% Matrigel (Corning Inc., cat. 354248) for the first three passages. The 857933-349-R-J2-PDC line was cultured in 6C/Colon 1B media, which includes advanced DMEM/F-12 (Thermo Fisher Scientific, cat. 12634028), 10 mM HEPES (Thermo Fisher Scientific, cat. 15630080), 1X GlutaMAX supplement (Thermo Fisher Scientific, cat. 35050061), 0.1 mg/mL primocin (InvivoGen, cat. ant-pm-2), 10% defined fetal bovine serum, heat inactivated (HyClone Laboratories Inc., cat. SH30070.03HI), 50% L-WRN conditioned media (ATCC, cat. CRL-3276), 1.25 mM N-Acetyl-L-cysteine (Sigma-Aldrich, cat. A9165), 10 mM nicotinamide (Sigma-Aldrich, cat. N0636), 1X B-27 supplement (Thermo Fisher Scientific, cat. 17504044), 1X N-2 supplement (Thermo Fisher Scientific, cat. 17502048), 10 microM Y-27632 dihydrochloride (Tocris Bioscience, cat. 1254), and 50 ng/mL human EGF recombinant protein (Thermo Fisher Scientific, cat. PHG0311). The 485176-168-R4-J1-PDC line was cultured in Panc media, which includes all 6C/Colon 1B media components plus 100 ng/mL human FGF-10 (Thermo Fisher Scientific, cat. 100-26), 500 nM SB-431542 (Selleckchem, cat. S1067), and gastrin (Tocris, cat. 3006).
[…]
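Also: spheroids exposed to compounds for seven days before readout.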

Row | Structure (SMILES) | viability, T/C (compound 0.0316 µM) | viability, T/C (compound 0.1 µM) | viability, T/C (compound 0.316 µM) | viability, T/C (compound 1 µM) | viability, T/C (compound 3.16 µM) | viability, T/C (compound 10 µM) | IC50 (curve of compound) | viability, T/C (compound 0.000999 µM) | viability, T/C (compound 0.00316 µM) | viability, T/C (compound 0.00999 µM) | viability, T/C (compound 0.0999 µM) | IC50 (compound alone, run of 04/22/2024)
1 | C#Cc1c(F)ccc2cc(O)cc(-c3ncc4c(N5CC6CCC(C5)N6)nc(OCC56CCCN5CC(F)C6)nc4c3F)c12 (configuration not stated) | 95.2% and 101% and 104% | 102% and 103% and 111% | 95.2% and 99.6% and 102% | 94.3% and 81.3% and 97.2% | 56.7% and 17.5% and 103% | 59% and 15.6% and 82.1% | > 10 µM and 1.76 µM | – | – | – | – | –
2 | C=CC(=O)N1CCN(c2nc(=O)n(-c3c(C)ccnc3C(C)C)c3nc(-c4c(O)cccc4F)c(F)cc23)C(C)C1 (configuration not stated) | 97.2% and 103% and 104% | 93.4% and 97.8% and 82.5% | 103% and 101% and 102% | 98.8% and 105% and 85.6% | 92.6% and 110% and 68.9% | 90.5% and 106% and 97.2% | > 10 µM | – | – | – | – | –
3 | C=CCn1c(=O)c2cnc(Nc3ccc(N4CCN(C)CC4)cc3)nc2n1-c1cccc(C(C)(C)O)n1 | 102% and 100% and 86.2% | 105% and 85.8% and 89.5% | 107% and 86.4% and 87.7% | 105% and 80.5% and 61.6% | 107% and 68.6% and 54.9% | 66.5% and 54.9% and 35.4% | > 10 µM and 3.18 µM | – | – | – | – | –
4 | CC(=O)O[C@H]1C(=O)[C@@]2(C)[C@H]([C@H](OC(=O)c3ccccc3)[C@]3(O)C[C@H](OC(=O)[C@H](O)[C@@H](NC(=O)c4ccccc4)c4ccccc4)C(C)=C1C3(C)C)[C@]1(OC(C)=O)CO[C@@H]1C[C@@H]2O | 92.5% and 97.5% and 84.8% | 90.5% and 92.7% and 88.8% | 72.9% and 89.3% and 82.4% | – | – | – | – | – | – | – | – | –
5 | CC(C)(O)C1CCC(Nc2ccc3ncc(-c4cccc(C(F)(F)F)c4)n3n2)CC1 (configuration not stated) | 109% and 99.2% and 78.5% | 101% and 97.4% and 88.4% | 111% and 94.6% and 101% | 105% and 80.1% and 66.9% | 97.6% and 16% and 12.7% | 87.6% and 15.5% and 13.5% | > 10 µM and 1.72 µM and 1.44 µM | – | – | – | – | –
6 | CC(C)n1c(=O)n(C)c2cnc3cc(F)c(-c4ccc(OCCCN5CCCCC5)nc4)cc3c21 | 97.4% and 115% and 95.5% | 102% and 97.8% and 101% | 110% and 102% and 97.8% | 118% and 115% and 110% | 74% and 109% and 84.6% | 57.9% and 69.9% and 56.8% | > 10 µM | – | – | – | – | –
7 | CC1COCCN1c1cc(-c2ccnn2C)c2ccnc(-c3ccn[nH]3)c2n1 (configuration not stated) | 88.2% and 92.1% and 81.5% | 71.7% and 79.9% and 54.3% | 50.6% and 61.6% and 45.6% | 34.4% and 49.4% and 35.4% | 27.7% and 46.1% and 23% | 26.8% and 40.4% and 24.8% | 0.318 µM and 0.979 µM and 0.181 µM | – | – | – | – | –
8 | CC1COCCN1c1cc(C2(O)CC3CCC(C2)O3)c2cnn(-c3ccn[nH]3)c2n1 (configuration not stated) | 79.3% and 91.3% and 95% | 66.4% and 78.3% and 88.3% | 54.6% and 68.4% and 73.6% | 41.1% and 52% and 56.7% | 23.6% and 30.7% and 47.5% | 20% and 23.6% and 36.8% | 0.431 µM and 0.993 µM and 2.09 µM | – | – | – | – | –
9 | CC1COCCN1c1cc(C2(S(C)(=N)=O)CC2)nc(-c2ccnc3[nH]ccc23)n1 (configuration not stated) | 98.2% and 95.8% and 104% | 80.6% and 102% and 90.9% | 82% and 94.1% and 92.3% | 85.7% and 94.6% and 87.3% | 59.1% and 88.3% and 68.5% | 55.5% and 73.5% and 54.2% | > 10 µM | – | – | – | – | –
10 | CCCS(=O)(=O)Nc1ccc(F)c(C(=O)c2c[nH]c3ncc(-c4ccc(Cl)cc4)cc23)c1F | 96% and 108% and 99.2% | 92.3% and 101% and 87.5% | 90.3% and 110% and 114% | 79.9% and 102% and 101% | 65.4% and 116% and 103% | 58.2% and 67.2% and 40.1% | > 10 µM and 8.3 µM | – | – | – | – | –
11 | CC[C@@]1(O)C(=O)OCc2c1cc1n(c2=O)Cc2cc3c(CN(C)C)c(O)ccc3nc2-1 | 93.2% and 102% and 89.2% | – | 82.7% and 90.3% and 80.3% | – | – | – | > 0.316 µM | 93.2% and 113% and 101% | 97.2% and 103% and 94.8% | 109% and 96.7% and 103% | 81.3% and 103% and 88.3% | –
12 | CCc1c2c(nc3ccc(O)cc13)-c1cc3c(c(=O)n1C2)COC(=O)[C@]3(O)CC | 73.2% and 80.9% and 61% | – | 41.9% and 54.7% and 34.1% | – | – | – | 0.175 µM and > 0.316 µM and 0.0507 µM | 94.6% and 102% and 82.8% | 74.4% and 96.6% and 88.9% | 82.1% and 85% and 83.3% | 54.9% and 68.1% and 33.5% | –
13 | CN(C)c1ccc(Nc2c3ccc(NC(=O)CCN4CCCC4)cc3nc3cc(NC(=O)CCN4CCCC4)ccc23)cc1 | 104% [middle of 12 runs] | 102% [middle of 12 runs] | 104% [middle of 12 runs] | 99.1% [middle of 12 runs] | 103% [middle of 12 runs] | 92.2% [middle of 12 runs] | – | – | – | – | – | > 10 µM
